Tests used:
[1] = Dosing of screening agents, CellTiter-Glo cell viability assay; assay type: cell-based; conditions: human, WT KBM7 cells
Description: (§1) Dosing of screening agents: To determine the appropriate dose of 6-TG and etoposide for screening in KBM7 and HL60 cells, cells were seeded in 96-well tissue culture plates at 4000 cells/well in 200 μL of media and were treated in triplicate with varying concentrations of 6-TG and etoposide. A CellTiter-Glo cell viability assay was performed after 4 days to assess drug toxicity. Concentrations at which the viability of WT KBM7 and HL60 cells fell below 5% were chosen.
Pooled screening: In all screens, 90 million target cells were transduced with viral sub pools and selected with blasticidin 24 hours after infection for 3 days. For the 6-TG screen, Cas9-KBM7 cells were cultured in media containing 400 nM 6-TG. For screens with etoposide, Cas9-KBM7 and Cas9-HL60 cells were cultured in media containing 130 nM and 200 nM of etoposide, respectively. Cultures of untreated Cas9-KBM7 and Cas9-HL60 cells were also maintained in parallel. All cells were passaged every 3 days, and after 12 days, cells were harvested for genomic DNA extraction. In negative selection screens, 10 million cells were harvested for genomic DNA extraction 24 hours after infection. The remaining cells were maintained for 12 doublings, before being harvested for genomic DNA extraction.

[2] = CellTiter-Glo cell viability assay in HL60 cells; assay type: cell-based, human; conditions: human, WT HL60 cells; at the concentration chosen for screening (200 nM etoposide); 4 days
Description: (§2) Viability assay: Cells were seeded in 96-well tissue culture plates at 4000 cells/well in 200 μL of media under various treatment conditions. After 3 days, 35 μL of CellTiter-Glo reagent (Promega) was added to each well, mixed for 5 minutes, and the luminescence was read on the SpectraMax M5 Luminometer (Molecular Devices). All experiments were performed in triplicate.
as §1
(§3) Pooled screening: In all screens, 90 million target cells were transduced with viral sub pools and selected with blasticidin 24 hours after infection for 3 days. For the 6-TG screen, Cas9-KBM7 cells were cultured in media containing 400 nM 6-TG. For screens with etoposide, Cas9-KBM7 and Cas9-HL60 cells were cultured in media containing 130 nM and 200 nM of etoposide, respectively. Cultures of untreated Cas9-KBM7 and Cas9-HL60 cells were also maintained in parallel. […]

HL60 cells = experiment: CellTiter-Glo cell viability assay in HL60 cells; assay type: cell-based, human; conditions: versus parental or sgAAVS1-modified HL60 cells; viability by cellular ATP
Description: as §2, §1, §3

SMILES	viability at 4 days, 130 nM ([1]; at the concentration chosen for screening (130 nM etoposide)) [%]	viability at 4 days, 200 nM [2] [%]	resistance to etoposide of isogenic HL60 lines with sgRNAs against TOP2A and CDK6 (HL60 cells)	viability at 4 days, 400 nM ([1]; at the concentration chosen for screening (400 nM 6-TG)) [%]
COc1cc([C@@H]2c3cc4c(cc3[C@@H](O[C@@H]3O[C@@H]5CO[C@@H](C)O[C@H]5[C@H](O)[C@H]3O)[C@H]3COC(=O)[C@H]23)OCO4)cc(OC)c1O [etoposide]	< 5	< 5	much more resistant	–
Nc1nc2nc[nH]c2c(=S)[nH]1 [6-TG, 6-thioguanine]	–	–	–	< 5

Reference: patent US11149267B2, “Functional genomics using CRISPR-Cas systems, compositions, methods, screens and applications thereof” (The Broad Institute, Inc., priority 2013, dated 2021)
